“Also recorded” adds a separate entry of the source.

The text below walks through data of US20100290989A1, “COMPOSITIONS AFFECTING HYALURONIC ACID MEDIATED ACTIVITY” (LONDON HEALTH SCIENCES CENTRE RESEARCH INC., priority 2007, published 2010).

Experiment [1] is described as follows: Isothermal calorimetry (ITC) of peptide binding to low molecular weight HA. As to the method: The binding of soluble peptide 15-1 to HA was next evaluated by isothermal calorimetry (ITC), to estimate a binding constant for the peptide (FIG. 2, the two lines represent two independent determinations in the figure). A buffered solution of 0.9 mM low molecular weight HA (10 kD average molecular weight) was injected into to a 0.6 mM peptide 15-1 solution. […] This peptide (and the scrambled control) have been further characterized in biological systems.
(ITC needs no label: the signal is the heat of the interaction.)

The test system of experiment [2] is Rhamm null (Rh−/−) fibroblasts. The experiment is described as follows: Scratch wound assay, Rhamm null fibroblast migration. In kind it is cell-based. The settings on record: with HA. As to the method: (§1) Scratch wound assays with Rhamm null and wildtype fibroblast cells were used to evaluate the biological properties of peptide 15-1.
(§2) Scratch wound assays are commonly used to assess the effects of drugs and drug candidates on cellular migration associated with wound closing. In a typical scratch wound assay, cells are plated to confluence in a multiwell plate. A single scratch wound is created in each well. The plate is then imaged at fixed time intervals. Cell number in the area of the scratch wound can be quantified to evaluate the characteristics of wound closing in the presence of pharmacological agents.
(§3) The lack of HA induced migration was reversed by re-expression of Rhamm (FIG. 3a).

The test system of another experiment is MDA-MB 231 cells. The experiment is described as follows: Methylcellulose assay, anchorage independent growth of breast cancer cells. In kind it is cell-based, human. The note with it: MDA-MB 231 in methylcellulose; 30 ug/ml; one week; versus scrambled control peptide. How it is done:
MDA-MB 231 cells were grown in Methylcellulose containing either peptide 15-1 (STMMSRSHKTRSHHV) or scrambled control peptide (HKSVSRHTSMRHSTM) (30 ug/ml). One week later, cells were counted.

The test system of another experiment is MDA-MB-231 cells. As to the kind of experiment: Scratch wound assay, breast cancer cell migration. The settings on record: 30 ug/ml, 24 hrs, versus scrambled control peptide. In kind it is cell-based, human. How it is done:
A confluent monolayer of MDA-MB-231 cells were scratched using a pipette tip. Cells were incubated in medium containing either peptide 15-1 (STMMSRSHKTRSHHV) or scrambled control peptide (HKSVSRHTSMRHSTM) (30 ug/ml). After 24 hrs, cells that migrated into the scratch were counted.

A short description of experiment [3]: Isothermal calorimetry (ITC) of peptide binding to high molecular weight HA. The settings on record: high molecular weight HA used instead of fragmented HA. From the text:
The binding of soluble peptide 15-1 to HA was next evaluated by isothermal calorimetry (ITC), to estimate a binding constant for the peptide (FIG. 2, the two lines represent two independent determinations in the figure). […] This peptide (and the scrambled control) have been further characterized in biological systems.

The test system of another experiment is prostate tumor cells. As to the kind of experiment: In vivo growth of subcutaneously injected, peptide-pretreated tumor cells. Further details: species or system NOD.CB17 SCID mice. The settings on record: cells pretreated with 50 micromolar peptide, tumors harvested after 28 days. As to the method: Studies have also been performed to determine if peptide 15-1 can inhibit tumor growth in a more complex microenvironment (FIG. 5). One hundred thousand tumor cells pretreated with 50 micromolar peptide 15-1 were injected subcutaneously into NOD.CB17 SCID mice. Twenty eight days later the mice were euthanized and the tumors harvested and analyzed.

In experiment [4] the test system is wild-type dermal fibroblast cells. As to the kind of experiment: Scratch wound assay, wild-type fibroblast migration. In kind it is cell-based. The note with it: migration stimulated by 30-mer HA. As to the method: as §1, §2, §3
The scratch wound assay was also used to determine the ability of various sizes of HA oligomers to promote migration of wild-type dermal fibroblast cells (FIGS. 8a and 8b).

Experiment [5] deals with Prostate tumor PC3M-LN4 cells. As to the kind of experiment: Methylcellulose assay, anchorage-independent growth of prostate tumor cells with peptide. The note with it: 50 micromolar peptide; PC3M-LN4 in methylcellulose; 7 days. In kind it is cell-based. As to the method:
A methylcellulose assay was adapted to evaluate anchorage-independent growth of prostate tumor cells in vitro. This assay offers advantages over agarose since the gels can be easily solubilized, allowing for recovery and quantification/biochemical characterization of cells at the end of the experiment. Prostate tumor PC3M-LN4 cells which synthesize large amounts of HA grow in this assay to form large multicellular colonies. Cells were recovered and counted after 7 days of incubation.
Fifteen thousand PC3M-LN4 cells were seeded into methylcellulose in the presence of 50 micromolar of the HA binding peptide 15-1 or scrambled peptide. Each peptide was mixed with PC3M-LN4 cells prior to culturing these cells in methylcellulose (FIG. 4). Culturing these cells in the presence of 50 micromolar peptide 15-1 inhibits anchorage-independent growth by 80%, which is highly statistically significant (FIG. 4).

Regarding “HKSVSRHTSMRHSTM [scrambled peptide, scrambled counterpart of peptide 15-1 used as a control, reference compound]”, in experiment [1] (low molecular weight HA (10 kD average), same conditions as peptide 15-1), the “interaction with HA” value is recorded as “did not interact with HA”.
Turning to STMMSRSHKTRSHHV [peptide 15-1], the “inhibition of migration of Rhamm null cells” value in experiment [2] was “resistant to the inhibitory effects”. For the same sequence, the Kd – broadly, the free concentration of one partner at which half of the binding sites on the other are occupied at equilibrium, for simple one-to-one binding – in experiment [1] (0.9 mM low molecular weight HA (10 kD average) injected into 0.6 mM peptide solution, estimated, read-out: binding constant (Kd)) was 100 nM. The “anchorage independent growth of human breast cancer cells” value with MDA-MB 231 cells is “reduce anchorage independent growth”. In addition, the “scratch wound induced migration of human breast cancer cells” value with MDA-MB-231 cells is on record as “reduces scratch wound induced migration”. For the same sequence, the “interaction with high molecular weight HA” value in experiment [3] is given as “greatly reduced”. In addition, the tumor growth result in the experiment on prostate tumor cells was “decrease in tumor growth”. Also, in experiment [4], the “inhibition of HA stimulated migration of wildtype cells” value is “sensitive to the inhibitory effects; also recorded: inhibited”. Further, in experiment [5], the “inhibition of anchorage-independent growth” value came out at 80%.
